Measurements published in ChEMBL document CHEMBL3875185, “Structure-anticonvulsant activity studies in the group of (E)-N-cinnamoyl aminoalkanols derivatives monosubstituted in phenyl ring with 4-Cl, 4-CH3 or 2-CH3” (Bioorg Med Chem, 2017).
The source made the active and inactive calls. The calls are words filed in the database; no cut-off is given here.

Assays:
Rattus norvegicus [1] = assay: Anticonvulsant activity in po dosed pentylenetetrazole induced seizure Sprague-Dawley rat model assessed as no observable episode of clonic convulsion of at least 5 secs; assay type: functional
Mus musculus [2] = assay: Anticonvulsant activity in maximal electroshock induced seizure mouse model assessed as suppression in hindlimb tonic extension at 100 mg/kg, ip measured at 0.5 hrs post dose; assay type: functional, organism-based
Rattus norvegicus [3] = assay: Neurotoxicity in Sprague-Dawley rat assessed as behavioral change at 30 mg/kg, ip measured at 1 hr post dose; assay type: toxicity, organism-based; settings: in vivo
Rattus norvegicus [4] = assay: Neurotoxicity in Sprague-Dawley rat assessed as behavioral change at 30 mg/kg, ip measured at 0.5 hrs post dose; assay type: toxicity, organism-based; settings: in vivo
Rattus norvegicus [5] = assay: Neurotoxicity in Sprague-Dawley rat assessed as behavioral change at 30 mg/kg, ip measured at 4 hrs post dose; assay type: toxicity, organism-based; settings: in vivo
Rattus norvegicus [6] = assay: Neurotoxicity in Sprague-Dawley rat assessed as behavioral change at 30 mg/kg, ip measured at […] post dose; assay type: toxicity, organism-based; settings: in vivo
Rattus norvegicus [7] = assay: Neurotoxicity in Sprague-Dawley rat assessed as behavioral change at 30 mg/kg, ip measured at 2 hrs post dose; assay type: toxicity, organism-based; settings: in vivo
Rattus norvegicus [8] = assay: Anticonvulsant activity in maximal electroshock induced seizure Sprague-Dawley rat model assessed as suppression in hindlimb tonic extension at 30 mg/kg, po measured at 1 hr post dose; assay type: functional, organism-based
[9] = Protection index, ratio of TD50 for neurotoxicity in po dosed Sprague-Dawley rat model to ED50 for po dosed pentylenetetrazole induced seizure Sprague-Dawley rat model; assay type: toxicity, organism-based; settings: in vivo, read-out: Ratio TD50/ED50
Mus musculus [10] = assay: Neurotoxicity in po dosed mouse assessed as induction of motor impairment by measuring time to peak effect by rotarod method; assay type: toxicity, organism-based; settings: in vivo
[11] = target: 5-hydroxytryptamine receptor 3A (Homo sapiens) (UniProt P46098); assay: Displacement of [3H]BRL 43694 from human recombinant 5HT3 receptor expressed in CHO cells at 100 uM measured after 120 mins by scintillation counting method relative to control; assay type: cell-based
5-hydroxytryptamine receptor 3A (Homo sapiens), sequence (P46098 whole entry): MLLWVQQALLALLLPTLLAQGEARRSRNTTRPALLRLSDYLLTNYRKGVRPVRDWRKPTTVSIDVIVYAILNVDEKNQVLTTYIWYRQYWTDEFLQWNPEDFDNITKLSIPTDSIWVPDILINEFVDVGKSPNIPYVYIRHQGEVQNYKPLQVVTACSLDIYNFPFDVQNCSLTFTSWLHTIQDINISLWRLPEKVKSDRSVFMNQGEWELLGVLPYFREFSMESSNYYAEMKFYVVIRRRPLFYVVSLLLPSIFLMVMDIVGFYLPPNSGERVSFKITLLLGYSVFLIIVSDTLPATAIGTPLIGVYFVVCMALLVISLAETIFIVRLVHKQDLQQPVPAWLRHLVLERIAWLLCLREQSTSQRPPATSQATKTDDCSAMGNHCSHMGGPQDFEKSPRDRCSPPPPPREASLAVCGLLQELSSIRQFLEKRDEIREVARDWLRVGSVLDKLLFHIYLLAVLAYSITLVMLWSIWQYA

Mus musculus [12] = assay: Anticonvulsant activity in 6-Hz induced seizure mouse model assessed as restoration of normal activity within 10 secs from stimulation at 100 mg/kg, ip at 44 mA measured at […] post dose; assay type: functional, organism-based
[13] = target: Galanin receptor type 2 (Homo sapiens) (UniProt O43603); assay: Displacement of [125I]galanin from human recombinant GAL2 receptor expressed in CHO cells at 100 uM measured after 120 mins by scintillation counting method relative to control; assay type: cell-based
Galanin receptor type 2 (Homo sapiens), sequence (O43603 whole entry): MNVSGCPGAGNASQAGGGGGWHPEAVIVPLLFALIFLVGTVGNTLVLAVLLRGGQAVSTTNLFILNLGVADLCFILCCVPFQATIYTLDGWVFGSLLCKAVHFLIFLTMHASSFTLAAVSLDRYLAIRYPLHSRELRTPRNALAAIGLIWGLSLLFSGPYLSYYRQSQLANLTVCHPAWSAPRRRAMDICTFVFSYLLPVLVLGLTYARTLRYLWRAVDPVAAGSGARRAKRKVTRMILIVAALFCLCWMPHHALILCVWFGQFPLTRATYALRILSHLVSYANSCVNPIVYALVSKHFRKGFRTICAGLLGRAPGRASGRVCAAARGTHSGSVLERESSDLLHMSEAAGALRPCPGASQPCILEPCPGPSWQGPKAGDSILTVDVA

Mus musculus [14] = assay: Neurotoxicity in mouse assessed as induction of motor impairment at 100 mg/kg, ip measured at 0.5 hrs post dose by rotarod method; assay type: toxicity, organism-based; settings: in vivo
Rattus norvegicus [15] = assay: Anticonvulsant activity in maximal electroshock induced seizure Sprague-Dawley rat model assessed as suppression in hindlimb tonic extension at 30 mg/kg, ip measured at […] post dose; assay type: functional, organism-based
Rattus norvegicus [16] = assay: Neurotoxicity in po dosed Sprague-Dawley rat assessed as behavioral change by measuring time to peak effect; assay type: toxicity, organism-based; settings: in vivo
Rattus norvegicus [17] = assay: Anticonvulsant activity in maximal electroshock induced seizure Sprague-Dawley rat model assessed as suppression in hindlimb tonic extension at 30 mg/kg, ip measured at 0.5 hrs post dose; assay type: functional, organism-based
[18] = target: Neuropeptide Y receptor type 1 (Homo sapiens) (UniProt P25929); assay: Displacement of [125I]peptide YY from Y1 in human SK-N-MC cells receptor at 100 uM measured after 120 mins by scintillation counting method relative to control; assay type: cell-based
Neuropeptide Y receptor type 1 (Homo sapiens), sequence (P25929 whole entry): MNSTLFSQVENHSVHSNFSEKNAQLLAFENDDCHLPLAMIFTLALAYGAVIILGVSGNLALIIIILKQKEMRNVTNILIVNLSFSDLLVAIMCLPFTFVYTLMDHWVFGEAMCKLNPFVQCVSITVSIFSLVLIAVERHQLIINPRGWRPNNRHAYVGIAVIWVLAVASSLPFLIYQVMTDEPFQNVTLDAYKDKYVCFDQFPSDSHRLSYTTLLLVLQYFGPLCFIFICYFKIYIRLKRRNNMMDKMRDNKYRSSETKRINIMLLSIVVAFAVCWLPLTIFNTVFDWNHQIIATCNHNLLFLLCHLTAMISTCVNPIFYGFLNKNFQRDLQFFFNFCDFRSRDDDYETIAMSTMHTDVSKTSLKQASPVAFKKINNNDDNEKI

Rattus norvegicus [19] = assay: Anticonvulsant activity in maximal electroshock induced seizure Sprague-Dawley rat model assessed as suppression in hindlimb tonic extension at 30 mg/kg, po measured at 0.5 hrs post dose; assay type: functional, organism-based
[20] = target: Gastrin/cholecystokinin type B receptor (Homo sapiens) (UniProt P32239); assay: Displacement of [125I]CCK-8s from human recombinant CCK2 receptor expressed in CHO cells at 100 uM measured after 60 mins by scintillation counting method relative to control; assay type: cell-based
Gastrin/cholecystokinin type B receptor (Homo sapiens), sequence (P32239 whole entry): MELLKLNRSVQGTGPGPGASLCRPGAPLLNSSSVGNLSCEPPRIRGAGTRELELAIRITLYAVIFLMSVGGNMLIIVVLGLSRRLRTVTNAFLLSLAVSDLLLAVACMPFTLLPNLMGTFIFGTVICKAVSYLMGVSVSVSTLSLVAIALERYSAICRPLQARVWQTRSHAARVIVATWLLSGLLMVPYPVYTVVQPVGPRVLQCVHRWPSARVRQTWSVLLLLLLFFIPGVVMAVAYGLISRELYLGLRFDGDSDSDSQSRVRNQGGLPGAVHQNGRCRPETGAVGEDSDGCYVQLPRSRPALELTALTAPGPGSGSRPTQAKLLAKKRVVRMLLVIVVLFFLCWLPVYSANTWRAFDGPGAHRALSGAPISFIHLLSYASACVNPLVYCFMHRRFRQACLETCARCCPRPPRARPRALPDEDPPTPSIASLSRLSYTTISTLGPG

Mus musculus [21] = assay: Anticonvulsant activity in pentylenetetrazole induced seizure mouse model assessed as no observable episode of clonic convulsion of at least 5 secs at 100 mg/kg, ip measured at 0.5 hrs post dose; assay type: functional, organism-based
[22] = target: Muscarinic acetylcholine receptor M1 (Homo sapiens) (UniProt P11229); assay: Displacement of [3H]pirenzepine from human recombinant M1 receptor expressed in CHO cells at 100 uM measured after 60 mins by scintillation counting method relative to control; assay type: cell-based
Muscarinic acetylcholine receptor M1 (Homo sapiens), sequence (P11229 whole entry): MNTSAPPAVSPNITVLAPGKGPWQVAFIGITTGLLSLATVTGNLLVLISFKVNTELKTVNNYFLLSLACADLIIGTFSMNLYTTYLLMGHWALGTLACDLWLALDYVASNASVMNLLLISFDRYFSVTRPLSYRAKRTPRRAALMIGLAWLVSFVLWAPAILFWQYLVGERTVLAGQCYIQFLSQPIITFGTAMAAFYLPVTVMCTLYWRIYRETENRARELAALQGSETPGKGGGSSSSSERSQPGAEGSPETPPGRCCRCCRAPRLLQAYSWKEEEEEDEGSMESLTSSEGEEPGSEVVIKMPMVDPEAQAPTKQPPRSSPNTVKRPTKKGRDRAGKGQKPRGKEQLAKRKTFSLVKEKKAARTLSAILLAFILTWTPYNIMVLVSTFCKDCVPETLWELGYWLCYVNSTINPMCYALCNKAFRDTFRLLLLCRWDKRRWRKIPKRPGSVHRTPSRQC

Mus musculus [23] = assay: Anticonvulsant activity in pentylenetetrazole induced seizure mouse model assessed as no observable episode of clonic convulsion of at least 5 secs at 300 mg/kg, ip measured at 4 hrs post dose; assay type: functional, organism-based
[24] = target: Muscarinic acetylcholine receptor M2 (Homo sapiens) (UniProt P08172); assay: Displacement of [3H]AF-DX384 from human recombinant M2 receptor expressed in CHO cells at 100 uM measured after 60 mins by scintillation counting method relative to control; assay type: cell-based
Muscarinic acetylcholine receptor M2 (Homo sapiens), sequence (P08172 whole entry): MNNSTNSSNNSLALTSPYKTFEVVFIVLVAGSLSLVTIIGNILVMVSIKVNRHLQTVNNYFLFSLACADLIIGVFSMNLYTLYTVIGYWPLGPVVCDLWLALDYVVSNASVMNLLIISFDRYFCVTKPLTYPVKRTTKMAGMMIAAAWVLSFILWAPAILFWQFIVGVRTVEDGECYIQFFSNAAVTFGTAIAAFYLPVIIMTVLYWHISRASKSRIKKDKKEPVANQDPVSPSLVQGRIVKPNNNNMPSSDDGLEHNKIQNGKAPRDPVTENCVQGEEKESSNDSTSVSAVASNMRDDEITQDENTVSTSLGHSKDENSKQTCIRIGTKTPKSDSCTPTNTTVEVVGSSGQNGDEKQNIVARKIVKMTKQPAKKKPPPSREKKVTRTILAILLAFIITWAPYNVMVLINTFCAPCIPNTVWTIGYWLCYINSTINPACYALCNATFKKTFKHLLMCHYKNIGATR

[25] = target: Histamine H1 receptor (Homo sapiens) (UniProt P35367); assay: Displacement of [3H]pyrilamine from human recombinant H1 receptor expressed in HEK293 cells at 100 uM measured after 60 mins by scintillation counting method relative to control; assay type: cell-based
Histamine H1 receptor (Homo sapiens), sequence (P35367 whole entry): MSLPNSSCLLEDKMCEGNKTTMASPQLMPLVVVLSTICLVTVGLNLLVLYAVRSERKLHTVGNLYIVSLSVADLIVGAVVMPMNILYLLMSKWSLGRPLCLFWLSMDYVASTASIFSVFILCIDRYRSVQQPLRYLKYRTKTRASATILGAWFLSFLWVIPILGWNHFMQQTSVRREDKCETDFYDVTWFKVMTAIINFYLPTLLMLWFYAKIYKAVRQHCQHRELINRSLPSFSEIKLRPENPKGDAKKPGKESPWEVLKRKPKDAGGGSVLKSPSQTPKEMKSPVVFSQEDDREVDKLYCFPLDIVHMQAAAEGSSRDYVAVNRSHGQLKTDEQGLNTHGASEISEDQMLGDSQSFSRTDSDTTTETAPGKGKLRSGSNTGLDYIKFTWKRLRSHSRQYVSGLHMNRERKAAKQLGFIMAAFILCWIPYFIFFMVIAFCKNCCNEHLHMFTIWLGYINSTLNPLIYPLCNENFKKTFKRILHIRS

Question: For `Cc1ccccc1/C=C/C(=O)N[C@@H](C)CO`, which ED50 (Rattus norvegicus [1]) is on record?
Answer: 69.6 mg/kg

Question: And the Activity (Mus musculus [2])?
Answer: Active

Question: And the Activity (Rattus norvegicus [3])?
Answer: Non-Toxic

Question: And the Activity (Rattus norvegicus [4])?
Answer: Non-Toxic

Question: What about the Activity (Rattus norvegicus [5]) of the same compound?
Answer: Non-Toxic

Question: What about the Activity (Rattus norvegicus [6]) of the same compound?
Answer: Non-Toxic

Question: What about the Activity (Rattus norvegicus [7]) of the same compound?
Answer: Non-Toxic

Question: And the Activity (Rattus norvegicus [8])?
Answer: Active

Question: And the selectivity ratio [9]?
Answer: > 7.18

Question: What about the Time (Mus musculus [10]) of the same compound?
Answer: 0.25 h

Question: What does the source list for `CCC(CO)NC(=O)/C=C/c1ccc(Cl)cc1` (stereo not given)?
Answer: inhibition [11]: -1.6%; Activity (Mus musculus [12]): Active; inhibition [13]: -7.3%; Activity (Mus musculus [14]): Non-Toxic; Activity (Rattus norvegicus [15]): Active; Time (Rattus norvegicus [16]): 4 h; Activity (Rattus norvegicus [17]): Active

Question: Which inhibition [18] does the source give for `CC(O)CNC(=O)/C=C/c1ccc(Cl)cc1` (stereo not given) here?
Answer: -5.8%

Question: And the Activity (Rattus norvegicus [19])?
Answer: Active

Question: What about the inhibition [20] of the same compound?
Answer: -9.8%

Question: What about the Activity (Mus musculus [21]) of the same compound?
Answer: Active

Question: And the inhibition [22]?
Answer: -9.8%

Question: And the Activity (Mus musculus [23])?
Answer: Active

Question: What about the inhibition [24] of the same compound?
Answer: -2.8%

Question: What about the inhibition [25] of the same compound?
Answer: -10%
